Assays:
Format in all cases: in vivo, human
[1] = tested on: trained sensory panel; experiment: Testing of compounds: tasting of 0.3% NaCl solution with 2 ppm compound by trained sensory panel; conditions: 2 ppm compound in a solution of 0.3% NaCl; trained sensory panel of 20 women
Procedure: Various compounds prepared in the previous examples were tested. Two solutions were prepared: A: a solution of 0.3% NaCl, B: a solution of 0.3% NaCl and 2 ppm compound as per Table 1. The samples were tasted by a trained sensory panel composed of 20 women aged between 30 and 60.

[2] = tested on: bench-top tasting panel; experiment: Model chicken broth (no MSG added, 0.3% sugar added), blind umami ranking; conditions: for Level preferred by panelists in this base: model chicken broth, 0.3% sugar added, % by weight
Procedure: (§1) The following compositions are made and tested. Using a bench-top tasting panel (consisting of 10 panelists—flavorists, application experts), panelists were asked to record the sensory attribute differences (umami) between the samples. All samples were tasted blind and ranked on umami. Model Chicken Broth—no MSG Added, 0.3% Sugar Added The model chicken broth powder was prepared from 11.9 g chicken fat, 23.81 g salt, 14.29 g sugar, 0.95 g onion powder, 49.01 g chicken powder, 0.04 g turmeric powder. To prepare the model chicken broth 2.0 g of powder was mixed 98.0 g hot water.

[3] = tested on: small group of flavourists; experiment: Tomato soup formulation tasting against reference soup; conditions: 1.5 ppm compound in tomato soup containing MSG; 4 flavourists
Procedure: A tomato soup mix was prepared from 9.4 g sodium chloride, 1 g MSG, 0.08 g ribonucleotides (ex yeast), 32 g tomato powder (ex Spreda), 25.1 g glucose, 21 g starch (Ultrasperse™ 5 ex National Starch), 5 g palm fat powder, 3 g yeast powder, 1 g onion powder, 0.15 g carrot powder, 0.05 g ground white pepper, 0.3 g celery extract powder, 0.05 g ground laurel leaf powder, and 1.85 g sucrose. 25 g of the well-mixed ingredients was added to 250 g of boiling water and stirred until completely dissolved, to give a reference soup.
The reference soup was compared with a batch of the same soup containing 1.5 ppm of 1-(2-hydroxy-4-isobutoxyphenyl)-3-(pyridine-2-yl)propan-1-one.

[4] = tested on: bench-top tasting panel; experiment: Commercial organic chicken broth, blind umami ranking; conditions: for Level preferred by panelists in this base: commercial organic chicken broth, % by weight
From the text: The following compositions are made and tested. Using a bench-top tasting panel (consisting of 10 panelists—flavorists, application experts), panelists were asked to record the sensory attribute differences (umami) between the samples. All samples were tasted blind and ranked on umami. Commercial Organic Chicken Broth (Swanson's Certified Organic Chicken Broth—No added MSG, contains about 0.4% sugars)

[5] = tested on: bench-top tasting panel; experiment: Model chicken broth (no MSG added, no sugar added), blind umami ranking; conditions: for Level preferred by panelists in this base: model chicken broth, no MSG added, % by weight
Procedure: as §1, with “no” for “0.3%”

[6] = tested on: small group of flavourists; experiment: Tomato ketchup tasting; conditions: 2 ppm compound in tomato ketchup; 4 flavourists
Procedure: A tomato ketchup was prepared from 19% tomato paste (28-30% dry weight), 8% vinegar (15%), 3% sodium chloride, 20% sugar and 50% water.
To one-half of the batch was added 2 ppm of 1-(2-hydroxy-4-methoxyphenyl)-3-(pyridin-2-yl)propan-1-one.

[7] = tested on: trained sensory panel; experiment: Potato chips tasting
Procedure: Plain potato chips were prepared.
One part was flavoured with 1.2% sodium chloride (sample A),
One part was flavoured with 1.2% sodium chloride and 0.3% MSG (sample B),
One part was flavoured with 1.2% sodium chloride and 2 ppm of 1-(2-hydroxy-4-methylphenyl)-3-(pyridin-2-yl)propan-1-one (sample C).
(§2) The samples were tasted by a trained sensory panel composed of 20 women aged between 30 and 60.

[8] = tested on: trained sensory panel; experiment: Comparative test with MSG: tasting of 0.3% NaCl / 0.03% MSG solution with compound; conditions: 5 ppm compound in 0.3% NaCl and 0.03% MSG; Solution A without compound: salty, umami
Procedure: Two solutions were prepared:
A: a solution of 0.3% NaCl and 0.03% MSG,
B: a solution of 0.3% NaCl, 0.03% MSG and 5 ppm of 1-(4-hydroxybenzo[d][1,3]dioxol-5-yl)-3-(pyridin-2-yl)propan-1-one.
as §2

[9] = 0.002% compound in model chicken broth, sugar added, Control 6th
[10] = 0.002% compound in commercial organic chicken broth, Control 5th
[11] = 0.001% compound in model chicken broth, Control 5th

## Cc1cc(C)c(O)c(C(=O)CCc2ccccn2)c1 [1-(2-hydroxy-3,5-dimethylphenyl)3-(pyridine-2-yl)propan-1-one]
[1]
  Taste description: Umami

## Cc1cc(O)c(C(=O)CCc2ccccn2)cc1C [1-(2-hydroxy-4,5-dimethylphenyl)-3-(pyridine-2-yl)propan-1-one]
[1]
  Taste description: Umami, sweet, savoury, salty
[2]; 0.002% compound in model chicken broth, sugar added
  Performance when evaluating for umami: performed well
[2]; [9]
  Finishing position in blind ranking of 6 samples on umami: 2
[2]
  Level preferred by panelists in this base: 0.002%

## CC(C)COc1ccc(C(=O)CCc2ccccn2)c(O)c1 [1-(2-hydroxy-4-isobutoxyphenyl)-3-(pyridine-2-yl)propan-1-one]
[1]
  Taste description: Umami, sweet, salty, bouillon, lingering,
[3]
  Taste of test soup compared with reference soup: more umami, had a clear lingering effect, was more salty and was more complex
[4]; [10]
  Finishing position in blind ranking of 6 samples on umami: 3
[4]
  Level preferred by panelists in this base: 0.002%
[5]; [11]
  Finishing position in blind ranking of 6 samples on umami: 4
[5]
  Level preferred by panelists in this base: 0.001%
[2]; [9]
  Finishing position in blind ranking of 6 samples on umami: 4
[2]
  Level preferred by panelists in this base: 0.002%

## COc1ccc(C(=O)CCc2ccccn2)c(O)c1 [1-(2-hydroxy-4-methoxyphenyl)-3-(pyridin-2-yl)propan-1-one]
[1]
  Taste description: umami, sweet, salty, longlasting
[6]
  Taste of test ketchup compared with ketchup without the compound: clearly more umami, more salty and had a pleasant savoury note
[4]; [10]
  Finishing position in blind ranking of 6 samples on umami: 4
[4]
  Level preferred by panelists in this base: 0.002%
[5]; [11]
  Finishing position in blind ranking of 6 samples on umami: 2
[5]
  Level preferred by panelists in this base: 0.001%
[2]; [9]
  Finishing position in blind ranking of 6 samples on umami: 3
[2]
  Level preferred by panelists in this base: 0.002%

## Cc1ccc(C(=O)CCc2ccccn2)c(O)c1 [1-(2-hydroxy-4-methylphenyl)-3-(pyridin-2-yl)propan-1-one]
[1]
  Taste description: Umami, sweet, licorice, savoury
[7]; potato chips with 1.2% sodium chloride and 2 ppm compound, sample A with salt only: salty
  Taste description (sample C): salty, strong umami, long lasting, savoury, bouillon
[7]; potato chips, sample C (1.2% sodium chloride, 2 ppm compound) versus sample A (salt) and sample B (salt, 0.3% MSG)
  Panel preference: preferred sample C over the other two samples
[4]; 0.001% compound in commercial organic chicken broth, Control 5th
  Finishing position in blind ranking of 6 samples on umami: 2
[4]
  Level preferred by panelists in this base: 0.001%
[5]; 0.0005% compound in model chicken broth, Control 5th
  Finishing position in blind ranking of 6 samples on umami: 3
[5]
  Level preferred by panelists in this base: 0.0005%
[2]; 0.001% compound in model chicken broth, sugar added, Control 6th
  Finishing position in blind ranking of 6 samples on umami: 5
[2]
  Level preferred by panelists in this base: 0.001%

## Cc1ccc(O)c(C(=O)CCc2ccccn2)c1 [1-(2-hydroxy-5-methylphenyl)-3-(pyridine-2-yl)propan-1-one]
[1]
  Taste description: Umami

## Cc1cccnc1CCC(=O)c1ccccc1O [1-(2-hydroxyphenyl)-3-(3-methylpyridin-2-yl)propan-1-one]
[1]
  Taste description: Slightly umami, savoury, meaty

## Cc1ccc(CCC(=O)c2ccccc2O)nc1 [1-(2-hydroxyphenyl)-3-(5-methylpyridin-2-yl)propan-1-one]
[1]
  Taste description: Slightly umami, some green aftertaste,

## COc1ccccc1C(=O)CCc1ccccn1 [1-(2-methoxyphenyl)-3-(pyridin-2-yl)propan-1-one]
[1]
  Taste description: Umami, slightly bitter

## O=C(CCc1ccccn1)c1ccc(OC2CCCC2)cc1O [1-(4-(cyclopentyloxy)-2-hydroxyphenyl)-3-(pyridine-2-yl)propan-1-one]
[1]
  Taste description: Umami

## O=C(CCc1ccccn1)c1ccc(OCC2CC2)cc1O [1-(4-cyclopropylmethoxy)-2-hydroxyphenyl)-3-(pyridine-2-yl)propan-1-one]
[1]
  Taste description: Umami

## CCOc1ccc(C(=O)CCc2ccccn2)c(O)c1 [1-(4-ethoxy-2-hydroxyphenyl)-3-(pyridine-2-yl)propan-1-one]
[1]
  Taste description: Umami, floral

## O=C(CCc1ccccn1)c1ccc2c(c1O)OCO2 [1-(4-hydroxybenzo[d][1,3]dioxol-5-yl)-3-(pyridin-2-yl)propan-1-one]
[1]
  Taste description: Clearly umami, slightly yeasty, bouillon
[8]
  Taste description (Solution B): salty, umami, more bouillon-like, more complex, less sweet

## CCc1ccc(O)c(C(=O)CCc2ccccn2)c1 [1-(5-ethyl-2-hydroxyphenyl)-3-(pyridine-2-yl)propan-1-one]
[1]
  Taste description: Umami, slightly bitter

## N[C@@H](CCC(=O)O)C(=O)[O-].[Na+] [MSG, monosodium glutamate, reference compound]
[7]; potato chips with 1.2% sodium chloride and 0.3% MSG
  Taste description (sample B): salty and umami
[4]; 0.05% MSG (Reference) in commercial organic chicken broth
  Finishing position in blind ranking of 6 samples on umami: highest umami
[5]; 0.05% MSG (Reference) in model chicken broth
  Finishing position in blind ranking of 6 samples on umami: highest umami
[2]; 0.05% MSG (Reference) in model chicken broth, sugar added
  Finishing position in blind ranking of 6 samples on umami: highest umami

— patent US20140295045A1, “Pyridine Derivatives With Umami Flavour” (Givaudan S.A., priority 2009, published 2014)
